Laboratory results taken from article PMC4890880 (ACS infectious diseases, 2016).
pIC50: −log10 of the molar value. Read-outs that look alike come from different tables or passages of the source.

Columns and labels:
[1] = system: Plasmodium berghei (Pb-Luc) exoerythrocytic-stage parasites; assay: microbe, parasite or virus in culture; settings: for pIC50: read-out: PbLuc IC50, dose response, 1/3 dilutions, max conc. 10 or 50 uM, unit inferred
[2] = system: HepG2-A16-CD81EGFP cells; assay: cells; settings: Homo sapiens; for pIC50: HepG2, read-out: Tox IC50; for inhibition at 50 µM: HepG2, read-out: Tox max inhibition (%) @ 50 uM
[3] = read-out: Inhibition% @ 50 uM rep1
[4] = read-out: Inhibition% @ 50 uM rep2
[5] = read-out: PbLuc max inhibition (%) @ 50 uM
[6] = HepG2, read-out: HepG2 Tox% @ 50 uM rep1
[7] = HepG2, read-out: HepG2 Tox% @ 50 uM rep2

SMILES	inhibition at 50 µM [1, 3]	inhibition at 50 µM [1, 4]	pIC50 [1]	inhibition at 50 µM [1, 5]	cytotoxicity at 50 µM [2, 6]	cytotoxicity at 50 µM [2, 7]	pIC50 [2]	inhibition at 50 µM [2]
COc1ccc2c(c1)C1(Nc3ccccc3-c3nc4ccccc4n31)C(=O)N2 (centres unmarked) [MMV396749]	102%	102%	4.80	98%	88%	94%	< 4.30	45%
O=C(NNc1cc(N2CCCC2)nc(N2CCCC2)n1)c1ccccc1 [MMV396770]	97%	98%			29%			
CC(C)(C)CC(C)(C)NCC(O)COc1ccc(Cl)cc1Cl (centres unmarked) [MMV396794]	101%	104%	4.82	92%	99%	100%	4.82	93%
COc1ccc(-c2c(C)nn3c(N)c(C#N)cnc23)cc1OC [MMV396797]	104%	106%	5.79	101%	72%	77%	4.59	55%
Cc1cccc(-n2ncc3c(=O)[nH]c(-n4nc(C)cc4NC(=O)c4cc5ccccc5o4)nc32)c1 [MMV403679]	100%	100%			38%	47%		
O=C1C2=C(Nc3ccccc3SC2c2ccccc2)c2ccccc21 (centres unmarked) [MMV645672]	104%	104%			87%			
CC(C)(C)c1ccc(O)c(CNC2CCCCC2)c1 [MMV665785]	99%	102%			97%	99%		
CC(NCc1ccccc1)c1cc(Cl)ccc1O (centres unmarked) [MMV665789]	103%	100%			72%	89%		
FC(F)(F)c1cccc(Nc2nc3ccccc3nc2Nc2cccc(C(F)(F)F)c2)c1 [MMV665794]	103%	102%	6.18	100%	100%		5.72	102%
CC(C)(C)CC(C)(C)NCC(O)COc1ccc2c(c1)CCC2 (centres unmarked) [MMV665817]	103%	104%			96%	98%		
CC1CC2=C(CC1CNCCCN(C)C)C(C)(C)CCC2 (centres unmarked) [MMV665830]	102%	102%			98%			
O=C(Nc1ccc(Cl)c(Cl)c1)Nc1ccc(Cl)c(Cl)c1 [MMV665852]	103%	104%	6.17	100%	100%		5.31	101%
CCCCNc1nc(NC(C)(C)C)nc(NC(C)(C)C)n1 [MMV665864]	94%	94%	4.81	89%	41%		< 4.30	41%
Cc1cc(Nc2ccc(C)c(Cl)c2)n2nc(C(F)(F)F)nc2n1 [MMV665874]	102%	102%			93%	95%		
CC(C)(C)C(=O)Nc1ccc(C(=O)Nc2cccc(-c3nc4ccccc4[nH]3)c2)cc1 [MMV665879]	102%	103%			99%	100%		
CC(Oc1ccc(NC(=O)c2cccs2)cc1)C(=O)c1ccc(Cl)cc1 (centres unmarked) [MMV665886]	102%	102%			82%			

SMILES	inhibition at 50 µM [1, 3]	inhibition at 50 µM [1, 4]	pIC50 [1]	inhibition at 50 µM [1, 5]	cytotoxicity at 50 µM [2, 6]	cytotoxicity at 50 µM [2, 7]	pIC50 [2]	inhibition at 50 µM [2]
c1ccc(-c2ccc(-c3nc4ccccc4[nH]3)cc2)cc1 [MMV665891]	103%	105%			39%	30%		
CC(=O)c1sc(NC(=O)Nc2ccc(C)cc2C)nc1C [MMV665894]	3.42%	-0.396%			-26%			
O=C(Nc1ccc(CN2CCOCC2)cc1)c1ccc(-c2ccc(Br)cc2)o1 [MMV665901]	104%	106%			101%	102%		
Cc1ccc(-c2cc(C(=O)Nc3ccc(S(=O)(=O)N4CCCCC4)cc3)[nH]n2)c(O)c1 [MMV665906]	-12%	30%			-10%	-5%		
O=C(Nc1nc(-c2ccccn2)cs1)c1ccccc1Br [MMV665909]	98%	98%			79%	86%		
O=C1c2ccccc2-c2nnc(-c3ccc(Br)cc3)cc21 [MMV665934]	1.49%	29%			-9%			
Cc1ccc(S(=O)(=O)c2c(COC(=O)c3cccc(C)c3)c(-c3ccccc3)nn2C)cc1 [MMV665936]	102%	103%			27%			
CN(C)c1ccc(C(O)(c2ccc(N(C)C)cc2)c2ccc(N(C)C)cc2)cc1 [MMV665941]	102%	104%	5.77	99%	95%	97%	5.64	96%
Nc1ccc(-c2nc3cc(Cc4ccc5[nH]c(-c6ccc(N)cc6)nc5c4)ccc3[nH]2)cc1 [MMV665943]	103%	104%	5.00	97%	99%		4.84	95%
CC(C)=CCN1CCC(C(=O)Nc2ccc(-c3nc4ccccc4[nH]3)cc2)CC1 [MMV665946]	100%	101%			98%	99%		
O=C(Nc1ccc(F)c(Cl)c1)Nc1ccc(Cl)c(Cl)c1 [MMV665953]	103%	102%	6.07	101%	97%	98%	5.30	99%
COc1cccc(C(=O)NC(c2ccc(C)cc2)c2cc(Cl)c3cccnc3c2O)c1 (centres unmarked) [MMV665969]	104%	104%	5.78	101%	92%		5.32	89%
Cc1ccc(OCCCCCCNCCO)c(C)c1 [MMV666020]	104%	104%			90%			
Cc1ccc(-c2cc3c(nn2)-c2ccccc2C3=O)cc1 [MMV666021]	99%	89%			31%	9%		
c1ccc(Cn2c(N=Nc3c(Nc4ccccc4)ccc4ccccc34)nc3ccccc32)cc1 [MMV666023]	99%	98%	5.38	100%	83%	86%	4.92	83%
